# Experimental data as given in publication PMC8792198 (Journal of pharmaceutical sciences, 2021).
# Values joined by “and” are separate entries in the source; they are usually repeats but may differ in a detail not shown here. Equal values may be shown once.
# What was measured:
# OATP5A1 = OATP5A1 (Homo sapiens, UniProt Q9H2Y9); assay: Uptake into HEK293 cells stably overexpressing OATP5A1; format: in vitro ADME; conditions: for transport by OATP5A1 in HEK293-OATP5A1 cells: pH 7.4
# placental BM vesicles [1] = conditions: cited from earlier work
# OAT4 [2] = biological target: T1, OAT4 (Homo sapiens, UniProt Q9NSA0); assay: Effect of E3S on OAT4-mediated uptake of pravastatin; format: in vitro ADME; conditions: E3S (200 μM), 2 μM pravastatin
# T1 sequence (Q9NSA0 1-550): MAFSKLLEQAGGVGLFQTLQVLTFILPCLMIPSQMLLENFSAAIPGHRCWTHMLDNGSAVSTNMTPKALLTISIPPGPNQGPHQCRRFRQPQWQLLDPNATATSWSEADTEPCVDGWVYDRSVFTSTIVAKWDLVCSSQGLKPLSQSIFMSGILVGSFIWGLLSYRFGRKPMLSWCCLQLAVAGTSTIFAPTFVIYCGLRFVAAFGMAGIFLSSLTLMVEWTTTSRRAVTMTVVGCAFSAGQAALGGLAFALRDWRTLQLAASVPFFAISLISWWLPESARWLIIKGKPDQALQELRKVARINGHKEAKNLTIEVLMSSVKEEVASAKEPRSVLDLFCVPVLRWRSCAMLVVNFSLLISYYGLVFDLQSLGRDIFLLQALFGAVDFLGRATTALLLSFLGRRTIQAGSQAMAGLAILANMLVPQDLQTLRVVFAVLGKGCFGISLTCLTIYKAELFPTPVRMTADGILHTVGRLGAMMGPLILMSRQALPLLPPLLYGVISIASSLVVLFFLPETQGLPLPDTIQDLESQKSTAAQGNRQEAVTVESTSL
# placental BM vesicles [3] = assay: Glutarate-stimulated uptake of pravastatin by placental BM vesicles; format: in vitro ADME, human
# OATP1A2 = biological target: T2, OATP1A2 (Homo sapiens, UniProt P46721); assay: Uptake into HEK293 cells transiently overexpressing OATP1A2; format: in vitro ADME
# T2 sequence (P46721 1-670): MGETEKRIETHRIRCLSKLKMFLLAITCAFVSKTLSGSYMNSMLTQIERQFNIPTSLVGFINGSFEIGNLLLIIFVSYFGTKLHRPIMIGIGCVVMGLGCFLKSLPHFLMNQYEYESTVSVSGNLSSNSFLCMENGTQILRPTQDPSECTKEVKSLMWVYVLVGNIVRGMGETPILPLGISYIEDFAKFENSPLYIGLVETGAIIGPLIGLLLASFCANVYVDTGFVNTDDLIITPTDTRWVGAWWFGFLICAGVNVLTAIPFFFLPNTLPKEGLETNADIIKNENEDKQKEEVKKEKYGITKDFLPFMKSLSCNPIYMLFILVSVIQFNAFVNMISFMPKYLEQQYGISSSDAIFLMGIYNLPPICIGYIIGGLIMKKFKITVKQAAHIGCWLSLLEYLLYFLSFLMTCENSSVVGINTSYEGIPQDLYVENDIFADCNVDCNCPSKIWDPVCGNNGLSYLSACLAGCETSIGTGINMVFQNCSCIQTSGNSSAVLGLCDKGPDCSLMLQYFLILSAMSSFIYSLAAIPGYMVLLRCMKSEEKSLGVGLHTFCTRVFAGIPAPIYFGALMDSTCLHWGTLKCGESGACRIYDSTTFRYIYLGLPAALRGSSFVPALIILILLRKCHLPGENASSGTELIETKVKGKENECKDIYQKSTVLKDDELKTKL
# placenta = conditions: ex vivo placental perfusion; cited from earlier work
# [4] = pregnant women taking 10 mg daily dose; cited from earlier work
# OATP2B1 = biological target: T3, OATP2B1 (Homo sapiens, UniProt O94956)
# T3 sequence (O94956 1-709): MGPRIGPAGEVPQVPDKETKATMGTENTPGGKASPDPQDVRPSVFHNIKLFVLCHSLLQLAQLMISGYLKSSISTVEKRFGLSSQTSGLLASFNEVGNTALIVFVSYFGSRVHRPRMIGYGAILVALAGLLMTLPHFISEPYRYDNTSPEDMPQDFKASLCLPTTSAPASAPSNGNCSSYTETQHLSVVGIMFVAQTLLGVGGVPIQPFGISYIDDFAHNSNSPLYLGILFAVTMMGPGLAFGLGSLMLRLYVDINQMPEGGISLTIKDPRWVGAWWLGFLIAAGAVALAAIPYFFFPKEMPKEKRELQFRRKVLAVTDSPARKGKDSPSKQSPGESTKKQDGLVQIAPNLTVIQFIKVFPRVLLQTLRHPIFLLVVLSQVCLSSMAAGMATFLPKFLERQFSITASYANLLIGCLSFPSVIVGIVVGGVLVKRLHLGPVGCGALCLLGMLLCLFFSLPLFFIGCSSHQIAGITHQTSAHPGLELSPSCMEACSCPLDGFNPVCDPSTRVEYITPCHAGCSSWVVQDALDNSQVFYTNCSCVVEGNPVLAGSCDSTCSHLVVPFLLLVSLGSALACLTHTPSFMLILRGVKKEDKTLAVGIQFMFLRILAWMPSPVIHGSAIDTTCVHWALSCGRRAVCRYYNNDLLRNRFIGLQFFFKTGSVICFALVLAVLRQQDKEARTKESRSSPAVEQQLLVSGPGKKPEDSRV
# OAT4 [5] = biological target: T1, OAT4; assay: Uptake into tetracycline-inducible T-REx-OAT4-293 cells; conditions: for Uptake, Net (transporter-mediated) / Uptake, Transporter-expressing cells: OAT4, 4 μM pravastatin; for Kt / Vmax: OAT4-mediated uptake, physiological pH, 37°C; for Uptake, Control: control cells for OAT4, 4 μM pravastatin
# OAT4 [6] = conditions: S2 cells expressing OAT4, single component saturation kinetics; ref 20 (Nakagomi-Hagihara et al, 2007); cited from earlier work
# OATP2A1 [7] = biological target: T4, OATP2A1 (Homo sapiens, UniProt Q92959); assay: Uptake into HEK293 cells stably overexpressing OATP2A1; format: in vitro ADME; conditions: 1 min
# OAT4 [8] = biological target: T1, OAT4; assay: OAT4-mediated efflux of preloaded pravastatin from T-REx-OAT4-293 cells; format: in vitro ADME
# placental AM vesicles = assay: Glutarate-stimulated uptake of pravastatin by placental AM vesicles; format: in vitro ADME, human; conditions: 1 μM [3H]Pravastatin, 37°C
# OATP2A1 [9] = biological target: T4, OATP2A1; conditions: 2 μM pravastatin
# [10] = OATP1A2-mediated uptake at pH 6.0
# [11] = OATP1A2-mediated uptake, physiological pH, 37°C, 30 s
# [12] = GA (glutaric acid preload), 30 s
# [13] = higher concentration range (low affinity)
# [14] = OATP2A1-mediated uptake, physiological pH, 37°C
# Sequence of OATP5A1 (Q9H2Y9 whole entry): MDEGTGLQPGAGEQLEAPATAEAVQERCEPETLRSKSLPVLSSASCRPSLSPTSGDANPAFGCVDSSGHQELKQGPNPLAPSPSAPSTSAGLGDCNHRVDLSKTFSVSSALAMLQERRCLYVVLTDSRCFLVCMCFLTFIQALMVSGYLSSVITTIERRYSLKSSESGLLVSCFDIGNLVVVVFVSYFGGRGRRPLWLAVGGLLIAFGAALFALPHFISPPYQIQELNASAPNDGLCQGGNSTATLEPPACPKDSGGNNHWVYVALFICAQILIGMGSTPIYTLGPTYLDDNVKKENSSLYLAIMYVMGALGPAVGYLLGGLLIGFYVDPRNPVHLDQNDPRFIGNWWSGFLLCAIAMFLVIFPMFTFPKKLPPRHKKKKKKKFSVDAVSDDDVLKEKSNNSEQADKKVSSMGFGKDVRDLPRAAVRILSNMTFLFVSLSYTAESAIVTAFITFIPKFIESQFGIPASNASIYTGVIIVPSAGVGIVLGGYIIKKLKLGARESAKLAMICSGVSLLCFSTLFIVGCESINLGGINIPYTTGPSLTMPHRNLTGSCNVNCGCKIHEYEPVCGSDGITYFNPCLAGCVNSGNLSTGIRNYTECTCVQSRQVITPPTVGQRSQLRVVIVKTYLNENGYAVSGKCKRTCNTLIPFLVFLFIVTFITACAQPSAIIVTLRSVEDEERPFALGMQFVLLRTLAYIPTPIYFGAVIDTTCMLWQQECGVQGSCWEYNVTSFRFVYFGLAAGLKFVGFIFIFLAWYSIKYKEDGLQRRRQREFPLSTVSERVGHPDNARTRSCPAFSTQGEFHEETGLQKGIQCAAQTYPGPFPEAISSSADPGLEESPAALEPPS
smiles,measurement,setting,value
"O=C1OC2(c3ccc(O)cc3Oc3cc(O)ccc32)c2ccccc21 [fluorescein, sodium fluorescein]",transport by OATP5A1 in HEK293-OATP5A1 cells,OATP5A1,"none of the substrates tested, namely pravastatin, E3S, PE2 and fluorescein were found to be transported"
C[C@]12CC[C@H](O)CC1=CC[C@@H]1[C@@H]2CC[C@]2(C)C(=O)[C@H](O)C[C@@H]12 [16α-hydroxydehydroepiandrosterone],increase of the uptake into placental BM vesicles by glutarate trans-stimulation,placental BM vesicles [1],56%
"CCCCC[C@H](O)/C=C/[C@H]1[C@H](O)CC(=O)[C@@H]1C/C=C\CCCC(=O)O [PE2, Prostaglandin-E2]",transport by OATP5A1 in HEK293-OATP5A1 cells,OATP5A1,"none of the substrates tested, namely pravastatin, E3S, PE2 and fluorescein were found to be transported"
CCCc1nc(C(C)(C)O)c(C(=O)O)n1Cc1ccc(-c2ccccc2-c2nnn[nH]2)cc1 [olmesartan],increase of the uptake into placental BM vesicles by glutarate trans-stimulation,placental BM vesicles [1],33%
"C[C@]12CC[C@@H]3c4ccc(OS(=O)(=O)O)cc4CC[C@H]3[C@@H]1CCC2=O [E3S, estrone-3-sulfate]",inhibition of OAT4-mediated uptake of pravastatin,OAT4 [2],complete inhibition
CC[C@H](C)C(=O)O[C@H]1C[C@H](O)C=C2C=C[C@H](C)[C@H](CC[C@@H](O)C[C@@H](O)CC(=O)O)[C@H]21 [Pravastatin],net (glutarate-dependent) uptake into BM vesicles at 4°C,"placental BM vesicles [3]; 4°C, 0.5-2 μM",negligible
same,trans-stimulatory effect of glutarate on the uptake into placental BM vesicles (increase),"placental BM vesicles [3]; BM vesicles, glutarate preload, Fig 1A",18%
same,glutarate-stimulated uptake into BM vesicles,"placental BM vesicles [3]; pravastatin concentrations below 1 μM, 37°C",did not detect any glutarate-stimulated uptake
same,"glutarate-stimulated uptake into BM vesicles, concentration dependence","placental BM vesicles [3]; two-fold increase of substrate from 1 μM to 2 μM, 37°C",proportional increase
same,"Uptake, Net (transporter-mediated)","OATP1A2; OATP1A2, 0.75 μM [3H]Pravastatin, 30 s, neutral pH",1.06 ± 0.32 pmol/mg protein/min
same,"Uptake, Transporter-expressing cells","OATP1A2; OATP1A2, 0.75 μM [3H]Pravastatin, 37°C, 30 s, neutral pH",1.73 ± 0.31 pmol/mg protein/min
same,apparent Kt,OATP1A2; [10],23.6 ± 2.87 µM
same,apparent Vmax,OATP1A2; [10],361 ± 29.3 pmol/mg protein*min^−1
same,Kt,OATP1A2; [11],1.60 ± 0.97 µM
same,Vmax,OATP1A2; [11],4.08 ± 0.72 pmol/mg protein*min^−1
same,"Uptake, Control","OATP1A2; control cells for OATP1A2, 0.75 μM [3H]Pravastatin, 30 s, neutral pH",0.66 ± 0.15 pmol/mg protein/min
same,"clearance index, direction of transfer",placenta,higher in the fetal-to-maternal direction than in the maternal-to-fetal direction
same,drug crossing the placenta from the maternal to fetal direction,placenta,18 ± 4%
same,steady state plasma concentrations,[4],nanomolar range
same,"Uptake, Transporter-expressing cells","OATP5A1; OATP5A1, 10 μM pravastatin, 37°C, 1 min, neutral pH",1.85 ± 0.18 pmol/mg protein/min
same,"Uptake, Net (transporter-mediated)","OATP5A1; OATP5A1, 10 μM pravastatin, 1 min, neutral pH",0.23 ± 0.01 pmol/mg protein/min
same,"Uptake, Control","OATP5A1; control cells for OATP5A1, 10 μM pravastatin, 1 min, neutral pH",1.62 ± 0.18 pmol/mg protein/min
same,transport by OATP5A1 in HEK293-OATP5A1 cells,OATP5A1,"none of the substrates tested, namely pravastatin, E3S, PE2 and fluorescein were found to be transported"
same,"Uptake, Transporter-expressing cells","OATP2B1; OATP2B1, 0.75 μM [3H]Pravastatin, 37°C, 1 min, neutral pH",0.71 ± 0.13 pmol/mg protein/min
same,"Uptake, Net (transporter-mediated)","OATP2B1; OATP2B1, 0.75 μM [3H]Pravastatin, 1 min, neutral pH",0.10 ± 0.16 pmol/mg protein/min
same,"Uptake, Control","OATP2B1; control cells for OATP2B1, 0.75 μM [3H]Pravastatin, 1 min, neutral pH",0.61 ± 0.13 pmol/mg protein/min
same,OATP2B1-mediated uptake,OATP2B1; pH 7.4,did not detect any OATP2B1-mediated uptake
same,"Uptake, Net (transporter-mediated)","OAT4 [5]; 30 s, chloride, no glutarate preload",2.86 ± 0.27 pmol/mg protein/min
same,"Uptake, Net (transporter-mediated)","OAT4 [5]; Cl-free uptake buffer, 30 s",7.15 ± 0.59 pmol/mg protein/min
same,"Uptake, Transporter-expressing cells","OAT4 [5]; Cl-free uptake buffer, 30 s","8.66 ± 0.80 ^*^, # pmol/mg protein/min"
same,"Uptake, Net (transporter-mediated)",OAT4 [5]; [12],5.17 ± 0.84 pmol/mg protein/min
same,"Uptake, Transporter-expressing cells",OAT4 [5]; [12],"7.04 ± 0.97 ^*^, # pmol/mg protein/min"
same,Kt,OAT4 [5]; [13],295 ± 99 µM and 295 ± 99.0 µM
same,Vmax,OAT4 [5]; [13],345 ± 54.8 pmol/mg protein*min^−1
same,Vmax,OAT4 [5]; lower concentration range (high-affinity),42.0 ± 93.4 pmol/mg protein*min^−1
same,Kt,"OAT4 [5]; lower concentration range (high-affinity), 30 s",30.5 ± 75.0 µM
same,"Uptake, Control","OAT4 [5]; Cl-free uptake buffer, 30 s",1.51 ± 0.24 pmol/mg protein/min
same,"Uptake, Control",OAT4 [5]; [12],1.87 ± 0.25 pmol/mg protein/min
same,Kt,OAT4 [6],257 µM
same,"Uptake, Transporter-expressing cells","OATP2A1 [7]; OATP2A1, 1 μM pravastatin, 37°C, neutral pH",0.46 ± 0.06 pmol/mg protein/min
same,Kt,OATP2A1 [7]; [14],188 ± 109 µM
same,Vmax,OATP2A1 [7]; [14],73.8 ± 19.2 pmol/mg protein*min^−1
same,"Uptake, Control","OATP2A1 [7]; control cells for OATP2A1, 1 μM pravastatin, neutral pH",0.26 ± 0.06 pmol/mg protein/min
same,remaining preloaded pravastatin,"OAT4 [8]; OAT4-expressing cells, chloride-free condition, 60 s efflux, preload 4 μM",39 ± 2%
same,estimated Ke of the pravastatin efflux,"OAT4 [8]; chloride-free condition, OAT4-expressing cells",2.1 ± 0.5 10^−2s^−1
same,estimated Ke of the pravastatin efflux,"OAT4 [8]; chloride-free condition, control cells",3.6 ± 2.1 10^−2s^−1
same,estimated Ke of the pravastatin efflux,"OAT4 [8]; presence of extracellular chloride, OAT4-expressing cells",2.6 ± 0.6 10^−2s^−1
same,estimated Ke of the pravastatin efflux,"OAT4 [8]; presence of extracellular chloride, control cells",3.0 ± 1.0 10^−2s^−1
same,glutarate-stimulated uptake into AM vesicles,placental AM vesicles,insignificant
O=C(O)Cc1ccccc1Nc1c(Cl)cccc1Cl [diclofenac],"decrease of the net, OATP2A1-dependent, uptake of pravastatin",OATP2A1 [9]; diclofenac 20 μM,50%
same,effect on uptake of pravastatin into OATP2A1-expressing cells,OATP2A1 [9]; diclofenac 200 μM,did not result in a statistically significant decrease
